Measured values taken from patent publication US20170273922A1, “UREA AND BIS-UREA BASED COMPOUNDS AND ANALOGUES THEREOF USEFUL IN THE TREATMENT OF ANDROGEN RECEPTOR MEDIATED DISEASES OR DISORDERS” (THE ROYAL INSTITUTION FOR THE ADVACEMENT OF LEARNING/MCGILL …, priority 2014, published 2017).
Values belong to the compound of their own block, whether it stands above or below them.

Assays:
Format in all cases: cell-based
LNCaP cells = assay: MTT assay (cytotoxicity), LNCaP cells
Experimental: (§1) MTT assays: LNCaP, 22Rv1, Du145, H1975, A549, MB231 and MCF-7 cells are maintained in RPMI 1640 supplemented with 10% FBS. Cells were seeded at a density of 6-7×10^3 cells per well in 96-well plates. After overnight incubation, cells in fresh RPMI 1640 supplemented with 10% FBS were exposed to DMSO vehicle control or test compounds at designated concentrations for 72 h. Viable cells were evaluated by MTT assays. Experiments were performed in triplicate and repeated at least twice.

22Rv1 cells = assay: MTT assay (cytotoxicity), 22Rv1 cells
Experimental: as §1

DU145 cells = assay: MTT assay (cytotoxicity), DU145 cells; conditions: 72 h, Table 2.1
Experimental: as §1

IRF3DBD-AR(1-547) = target: T1, IRF3DBD-AR(1-547) (Homo sapiens, UniProt P10275); assay: IRF3DBD-AR(1-547) ISRE-luc reporter assay; conditions: PC3 cells, 24 h
T1 construct: IRF3-AR(1-547) is the fusion of IRF3 DBD with the AR NTD (1-547); expressed in transfected cells
T1 sequence (P10275 1-547): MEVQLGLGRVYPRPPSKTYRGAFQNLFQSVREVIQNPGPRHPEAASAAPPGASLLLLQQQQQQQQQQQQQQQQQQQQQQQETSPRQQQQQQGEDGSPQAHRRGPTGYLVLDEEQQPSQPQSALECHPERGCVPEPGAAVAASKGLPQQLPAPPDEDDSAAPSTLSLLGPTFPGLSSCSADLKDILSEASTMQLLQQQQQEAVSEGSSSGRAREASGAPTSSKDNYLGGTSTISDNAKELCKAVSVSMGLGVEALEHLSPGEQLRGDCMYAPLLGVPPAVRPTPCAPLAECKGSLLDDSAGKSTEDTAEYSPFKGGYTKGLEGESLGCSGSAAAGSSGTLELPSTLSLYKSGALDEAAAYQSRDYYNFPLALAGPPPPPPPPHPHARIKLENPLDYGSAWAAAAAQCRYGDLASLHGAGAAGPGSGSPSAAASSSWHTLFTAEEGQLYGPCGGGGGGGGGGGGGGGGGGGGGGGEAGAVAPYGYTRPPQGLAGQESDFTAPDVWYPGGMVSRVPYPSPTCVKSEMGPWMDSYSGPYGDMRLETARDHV

full-length IRF3 = target: T2, full-length IRF3 (Homo sapiens, UniProt Q14653); assay: Full-length IRF3 ISRE-luc reporter assay; conditions: PC3 cells, 24 h
T2 construct: co-transfected with full-length IRF3 or IRF3DBD-AR(1-547) expressing plasmids; expressed in transfected cells
T2 sequence (Q14653 1-427): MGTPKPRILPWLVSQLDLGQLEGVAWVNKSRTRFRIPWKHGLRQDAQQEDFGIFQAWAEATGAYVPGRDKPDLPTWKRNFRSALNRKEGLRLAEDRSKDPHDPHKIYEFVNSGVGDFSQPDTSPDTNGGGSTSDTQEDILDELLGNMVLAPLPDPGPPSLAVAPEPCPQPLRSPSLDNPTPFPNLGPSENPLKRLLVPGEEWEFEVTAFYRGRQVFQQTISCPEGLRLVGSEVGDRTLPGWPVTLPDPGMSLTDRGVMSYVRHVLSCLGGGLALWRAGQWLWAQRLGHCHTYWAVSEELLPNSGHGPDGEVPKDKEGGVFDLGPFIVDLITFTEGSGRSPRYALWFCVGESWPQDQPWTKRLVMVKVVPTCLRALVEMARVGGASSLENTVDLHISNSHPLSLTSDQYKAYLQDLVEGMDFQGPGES
Description: For all of the others, cells were co-transfected with full-length IRF3 or IRF3DBD-AR(1-547) expressing plasmids and with the ISRE-luc reporter and pRL-TK plasmids. […] As IRF3DBD-AR(1-547) contains the DBD of IRF3, ISRE-luc reporter instead of the PSA-luc reporter was used in our assays.
HEK293 cells were co-transfected with IRF3DBD(1-133) or IRF3DBD-AR(1-547) or IRF3DBD-AR(181-547) or full-length IRF3 expressing plasmids and with the ISRE-luc reporter and the Renilla luciferase pRL-TK plasmids.
Here, IRF3-AR(1-547) is the fusion of IRF3 DBD with the AR NTD (1-547). […] The plasmids expressing IRF3-AR(1-547) (A) or wild-type IRF3 (B) or IRF3 DBD (for NT) as well as ISRE-luc and pRL-TK were transiently transfected into PC3 cells. […] Bic, bicalutamide; EPI, EPI-001.

[1] = MTT assay (cytotoxicity), LNCaP cells; conditions: human, LNCaP cells
Experimental: as §1

[2] = MTT assay (cytotoxicity), 22Rv1 cells; conditions: human, 22Rv1 cells
Experimental: as §1

[3] = MTT assay (cytotoxicity), DU145 cells; conditions: human, DU145 cells
Experimental: as §1

[4] = MTT assay (cytotoxicity), H1975 cells; conditions: human, 72 h treatment, Table 6.1
Experimental: as §1

[5] = MTT assay (cytotoxicity), A549 cells; conditions: human, 72 h treatment, Table 6.1
Experimental: as §1

[6] = MTT assay (cytotoxicity), MB231 cells; conditions: human, 72 h treatment, Table 6.1
Experimental: as §1

[7] = MTT assay (cytotoxicity), MCF-7 cells; conditions: human, 72 h treatment, Table 6.1
Experimental: as §1

[8] = MTT assay (72 h), liver hepatocellular carcinoma cell line of Table 6.1; conditions: human, HepG2 cells (liver hepatocellular carcinoma), 72 h treatment, read-out: Cytotoxicity (IC50, μM) HepG2
[9] = target: T3, T877A mutant of full-length AR (Homo sapiens, UniProt P10275, T878A); assay: AR T877A mutant PSA-luc reporter assay in PC3 cells; conditions: absence of DHT, 24 h
T3 sequence (P10275 1-920 T878A): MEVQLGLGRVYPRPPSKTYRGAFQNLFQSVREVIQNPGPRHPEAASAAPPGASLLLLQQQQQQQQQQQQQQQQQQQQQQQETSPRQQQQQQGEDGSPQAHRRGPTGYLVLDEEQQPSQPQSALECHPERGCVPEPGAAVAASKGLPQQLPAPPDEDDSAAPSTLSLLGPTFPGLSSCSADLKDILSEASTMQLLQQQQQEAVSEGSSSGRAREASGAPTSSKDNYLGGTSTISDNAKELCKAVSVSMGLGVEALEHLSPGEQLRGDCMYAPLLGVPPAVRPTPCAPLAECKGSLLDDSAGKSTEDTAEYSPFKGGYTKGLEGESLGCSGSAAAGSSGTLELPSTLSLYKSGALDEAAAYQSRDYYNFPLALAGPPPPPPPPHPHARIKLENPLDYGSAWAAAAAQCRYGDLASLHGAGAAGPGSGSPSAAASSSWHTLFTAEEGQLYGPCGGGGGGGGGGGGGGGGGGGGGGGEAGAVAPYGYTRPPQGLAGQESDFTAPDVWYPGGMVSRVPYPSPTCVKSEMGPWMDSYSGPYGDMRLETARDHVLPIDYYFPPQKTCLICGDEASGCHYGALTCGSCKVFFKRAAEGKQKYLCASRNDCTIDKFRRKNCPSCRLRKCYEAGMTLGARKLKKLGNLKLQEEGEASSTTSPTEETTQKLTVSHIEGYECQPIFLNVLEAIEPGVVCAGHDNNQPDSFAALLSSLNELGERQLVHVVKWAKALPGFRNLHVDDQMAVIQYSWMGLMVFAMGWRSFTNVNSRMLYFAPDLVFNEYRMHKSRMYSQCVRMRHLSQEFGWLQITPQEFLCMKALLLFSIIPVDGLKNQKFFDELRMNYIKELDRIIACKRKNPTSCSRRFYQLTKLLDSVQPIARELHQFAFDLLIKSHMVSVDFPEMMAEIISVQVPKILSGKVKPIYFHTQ
Description: ENZ, enzalutamide; Bic, bicalutamide; OHF, hydroxyflutamide.

inhibition of IRF3-AR(1-547)-dependent ISRE-luc reporter activity (IRF3DBD-AR(1-547)): potently inhibit
activity against wild-type IRF3 (ISRE-luc) (full-length IRF3): inactive
SMILES: O=C(N/C=C/c1cc(C(F)(F)F)cc(C(F)(F)F)c1)Nc1cnccn1 [Compound 528]
IC50 (LNCaP cells; 72 h, Table 2.1): 0.12 µM
IC50 (LNCaP cells; LNCaP cells, 72 h treatment, Table 6.1): 0.12 µM
IC50 (22Rv1 cells; 22Rv1 cells, 72 h treatment, Table 6.1): < 1 µM
IC50 (22Rv1 cells; 72 h, Table 2.1): < 1 µM
IC50 (DU145 cells): < 1 µM

SMILES: O=C(Nc1cc(C(F)(F)F)cc(C(F)(F)F)c1)Nc1ccc2[nH]ccc2c1 [Compound 530]
IC50 at 72 h ([1]; 72 h, Table 4.1): 6 µM
IC50 at 72 h ([2]; 72 h, Table 4.1): 7.1 µM
IC50 at 72 h ([3]; Table 4.1): 8.3 µM

SMILES: O=C(N/C=C/c1cc(C(F)(F)F)cc(C(F)(F)F)c1)Nc1ccn(C(=O)N/C=C/c2cc(C(F)(F)F)cc(C(F)(F)F)c2)c(=O)n1 [Compound 532]
IC50 at 72 h ([1]; 72 h, Table 5.1): 2.4 µM
IC50 at 72 h ([2]; 72 h, Table 5.1): 4.3 µM
IC50 at 72 h ([3]; Table 5.1): 5.1 µM

SMILES: CC/C=C(\C)CN(C(=O)N/C=C/c1cc(C(F)(F)F)cc(C(F)(F)F)c1)c1ccc(C#N)nc1 [Compound 534]
IC50 at 72 h ([1]; 72 h, Table 2.5): 6 µM
IC50 at 72 h ([2]; 72 h, Table 2.5): 7.3 µM
IC50 at 72 h ([3]; Table 2.5): 7.1 µM

SMILES: O=C(Nc1cccc(C(F)(F)F)c1)Nc1ccncn1 [Compound 574]
IC50 at 72 h ([1]; 72 h, Table 4.1): 13.8 µM
IC50 at 72 h ([2]; 72 h, Table 4.1): > 20 µM
IC50 at 72 h ([3]; Table 4.1): > 20 µM

SMILES: O=C(Nc1cc(C(F)(F)F)cc(C(F)(F)F)c1)Nc1ccncn1 [Compound 578]
IC50 at 72 h ([1]; 72 h, Table 4.1): 1.3 µM
IC50 at 72 h ([2]; 72 h, Table 4.1): 5.5 µM
IC50 at 72 h ([3]; Table 4.1): 2.4 µM

SMILES: O=C(Nc1cccc(C(F)(F)F)c1)Nc1ccc(C(=O)Nc2ccccc2F)c(C(F)(F)F)c1 [Compound 822]
IC50 at 72 h ([1]; 72 h treatment, Table 6.1): 3 µM
IC50 at 72 h ([2]; 72 h treatment, Table 6.1): 4 µM
IC50 at 72 h [4]: 6.3 µM
IC50 at 72 h [5]: 6 µM
IC50 at 72 h [6]: 8.1 µM
IC50 at 72 h [7]: 4.5 µM
IC50 at 72 h [8]: 3.2 µM

inhibition of IRF3-AR(1-547)-dependent ISRE-luc reporter activity (IRF3DBD-AR(1-547)): potently inhibit
activity against wild-type IRF3 (ISRE-luc) (full-length IRF3): inactive
SMILES: O=C(Nc1cccc(C(F)(F)F)c1)Nc1ccc(F)cc1NC(=O)c1cc(Cl)ccc1F [Compound 968]

inhibition of IRF3-AR(1-547)-dependent ISRE-luc reporter activity (IRF3DBD-AR(1-547)): potently inhibit
activity against wild-type IRF3 (ISRE-luc) (full-length IRF3): inactive
SMILES: O=C(Nc1cccc(Br)c1)Nc1cc(NC(=O)Nc2cccc(C(F)(F)F)c2)cc(C(F)(F)F)c1 [Compound 973]

agonism of AR T877A mutant (PSA-luc) [9]: activated
SMILES: CC(C)(O)C(=O)Nc1ccc([N+](=O)[O-])c(C(F)(F)F)c1 [hydroxyflutamide, reference compound]
